This note sets out measurements from patent US10106551B2, “Monothiol mucolytic agents” (PARION SCIENCES, INC., priority 2015, dated 2018).

Series [1] has as its system IL-8. The experiment in a line: IL-8 Secretion from primary HBEs (ELISA). Type of series: cell-based, human. To be noted: FIG. 6B; 10 mM, apical surface of HBE cells, 24 hours. The protocol: Reducing agents were made up in 50 mM Tris-HCl buffered to pH 7.5. Each compound solution (15 μL of 10 mM compound) was added to the apical surface of primary HBEs.
IL-8 secretion was measured from the basolateral HBE media 24 hours post-dose using a ThermoScientific human IL-8 ELISA kit. Samples were diluted 1:50 and then 50 μL of each dilution was added to the ELISA plate. The samples were completed in duplicate following standard reaction conditions as outlined in the kit manual. Absorbance was measured at 450 nm. A standard curve, generated from standards with known amounts of human IL-8, was used to calculate IL-8 amounts in the unknown samples. Supernatant from mucopurlent matters (SMM) purified from cystic fibrosis sputum was used as a positive control for IL-8 secretion.
In general terms: In an ELISA, binding on a coated surface is turned into a signal by an enzyme label.

Series [2] is described as follows: DTNB assay: rate of S-S bond reduction. Type of series: biochemical. Particulars: for DTNB reduction rate: 22.5 μM reducing agent, 45 μM DTNB, 50 mM Tris-HCl. The text has this: Thiol-containing compounds, such as the monothiol mucolytic agents described in this patent, can react with DTNB (5,5-Dithiobis(2-nitrobenzoic acid)) resulting in the cleavage of its single S—S bond. The DTNB assay serves a dual purpose in our analysis of monothiol compounds, as it can (1) be used to determine the “active concentration” of the mucolytic compounds (what amount of the compound in a reaction is able to cleave S—S bonds) and (2) to assess the rate that the compound can cleave S—S bonds. When cleaved, the resulting compound, NTB (2-nitro-5-thiobenzoate), is a colored product that is measured spectrophotometrically at an absorbance of 412 nm (Abs412). Using the molar extinction coefficient of NTB and measured maximum Abs412, the molar amount of DTNB that reacted with our mucolytic agents can be calculated. Monothiol mucolytic compounds react at a 1:1 stoichiometric ratio with DTNB (i.e. 1 mole of NTB is produced when 1 mole of DTNB is reacted with 1 mole of a monothiol reducing agent). To define the activity concentration of a compound, a final concentration of 22.5 μM mucolytic reducing agent was combined with an excess of DTNB (100 μM) in 1 mL 50 mM Tris-HCl buffer (pH 7.5). Maximum Abs412 was measured and then utilized to calculate the activity concentration. If observed activity concentrations differed from expected activity concentrations by more than 5%, the amount of the compound added to each reaction was accordingly adjusted to kinetically test the reducing rate in the next step. To determine rate of mucolytic reducing activity, 22.5 μM active reducing agent is combined with 45 μM DTNB in 1 mL 50 mM Tris-HCl buffer over a pH range (6.0-7.5). Abs412 is recorded in real time upon addition of the compound and rates were calculated using 2nd order kinetic parameters.

The target in series [3] is T1, Muc5B (Homo sapiens, UniProt Q9HC84).
T1 construct: Various mucin-containing substrates (e.g. saliva, harvested HBE mucus, and disease sputum) treated with our monothiol mucolytic compounds; from tissue; host or cells: saliva; harvested HBE mucus; disease sputum
The series is described as follows: Mucin agarose gel western blot (saliva / mucus samples). To be noted: for reducing capacity relative to 76 (Muc5B): FIG. 3; for Muc5b reduction: FIG. 4. The class given is biochemical. The protocol: (§1) Various mucin-containing substrates (e.g. saliva, harvested HBE mucus, and disease sputum) treated with our monothiol mucolytic compounds are quenched upon completion of the treatment period with a 10-fold excess of N-ethylmaleimide in order to alkylate any remaining active compound and to prevent further mucin reduction. A 10× concentrated sample loading buffer is diluted into each sample (1×TAE/5% glycerol/0.1% SDS/Bromophenol Blue). Samples ([…]) were analyzed by electrophoresis on 0.9% agarose gels using a buffer system consisting of 1×TAE/0.1% SDS. The agarose gel was soaked for 15 min in 4×SSC (0.6 M NaCl, 60 mM Tri-sodium citrate dehydrate) containing 10 mM DTT before transferring the samples from the gel onto a nitrocellulose membrane by vacuum blotter. Unreduced and reduced Muc5B were visualized on a LiCor Odyssey imaging detection system using a polyclonal antibody directed towards Muc5B.
On the technique in general: In western blotting, separated proteins are transferred to a membrane and probed.

Series [4] in a line: Parallel Artificial Membrane Permeability (PAMPA) Assay. The class given is in vitro ADME. To be noted: FIG. 5; 5 hours, room temperature. On the procedure:
This assay measures the permeability of small molecules across an artificial phospholipid membrane to help predict in vivo drug permeability. First, 500 μM stock solutions were made up in PBS and tested by the DTNB assay (described above) to determine compound activity concentrations. Next, 300 μL of the 500 μM compound stock solution and 200 uL PBS were added per well to the donor and acceptor plates, respectively (BD Gentest™ Pre-Coated PAMPA Plate System). The acceptor plate was then placed on top of the donor plate and allowed to incubate at room temperature for 5 hours. After incubation, the donor and acceptor plates were separated. For each reaction, samples were taken from both the acceptor and donor plates and were combined with DTNB prior to reading spectrophotometrically (maximum Abs412). For prodrug samples, 1 μL of purified esterase (porcine liver esterase; Sigma) was added per well and the samples were incubated at room temperature for 5 minutes to allow for cleavage of the pro-drug cap prior to addition of DTNB. Using the concentrations of compound identified in both the donor and acceptor plates for each sample, a compound permeability parameter was calculated following equations outlined in the BD Gentest™ Pre-Coated PAMPA Plate System Manual.

Series [5] in a line: Pro-Drug DTNB assay with or without esterase. The class given is biochemical. On the procedure: The present invention provides a series of mucolytic pro-drugs (see R^6=other than H) that are activated by common enzymes that are present in the extracellular milieu (e.g., nucelotidases, phosphatases, and esterases). As a proof-of-concept, the reducing kinetics of the pro-drug compound 46 in the presence or absence of an activating esterase were tested.
This assay was designed to determine whether prodrug caps added on to our monothiol mucolytic compounds can be cleaved from the molecule. If so, the outcome would be an “active” compound that is able to reduce the S—S bond in DTNB. Similar to the activity concentration version of the DTNB assay described above, monothiol prodrugs were mixed at a final concentration of 22.5 μM with excess DTNB (100 μM final) in 1 mL 50 mM Tris-HCl buffer (pH 7.5) and maximum Abs412 was measured. In the absence of a purified hydrolytic enzyme (e.g. porcine liver esterase; Sigma), the amount of DTNB cleavage observed is an indicator for stability of the cap on the prodrug compound (i.e. if the prodrug remains intact in solution the Abs412=0). Next, 5 uL of esterase (bought as an ammonium sulfate suspension that is subsequently centrifuged to isolate the esterase and then dissolved in reaction buffer prior to assaying) is combined with excess DTNB (100 μM final) and 22.5 μM pro-drug in 1 mL 50 mM Tris-HCl buffer (pH 7.5). Cleavage of the prodrug cap can be visualized in real time via DTNB cleavage at Abs412 by the esterase-liberated monothiol molecule.

The target in series [6] is T1, Muc5B. The experiment in a line: Muc5b reduction in COPD sputum, agarose gel western blot. The class given is biochemical. Particulars: FIG. 8; spontaneously induced sputum from a patient with COPD. The protocol: as §1
An important aspect of mucolytic pro-drugs is that they must be activated in mucus on the lung surface.

Series [7] has as its system mucus on primary human bronchial epithelial (HBE) cultures. The series is described as follows: Mucus reduction on primary human bronchial epithelial (HBE) cultures, western blot. The class given is cell-based. To be noted: FIG. 9; added to apical surface of HBE cultures. The protocol: as §1
Mucin reduction kinetics were assessed by western blot at the indicated times post-addition of mucolytic agents to the apical surface of HBE cultures.

A short description of series [8]: Elimination of inhaled 14C-labelled NAC from the lungs in animal studies. Type of series: in vivo. To be noted: inhaled or intranasal, 14C-labled NAC, administered by inhalation, animal studies (unpublished observation).

With `NCCCC[C@@H](N)C(=O)NCCOc1ccc(CS)cc1` [Compound 69, (R)-2,6-diamino-N-(2-(4-(mercaptomethyl)phenoxy)ethyl)hexanamide], the IL-8 secretion entry in series [1] is “did increase IL-8 secretion”. The DTNB reduction rate in series [2] (pH 6) came out at 485.93 M⁻¹ s⁻¹. In addition, the “reducing capacity relative to 76 (Muc5B)” value in series [3] is “retain the reducing capacity of 76”.

`CC(=O)SCc1ccc(OCCN)cc1.Cl` [Compound 76, S-4-(2-aminoethoxy)benzyl ethanethioate hydrochloride]: the IL-8 secretion result in series [1] is “did not increase IL-8 secretion”. Also, in series [4], the “membrane permeability (PAMPA)” value is given as “membrane permeable”. Also, the DTNB reduction rate is 253.2 M⁻¹ s⁻¹ in series [2] (pH 6), 654.24 M⁻¹ s⁻¹ in series [2] (pH 6.5), 1499 M⁻¹ s⁻¹ in series [2] (pH 7) and 4633.8 M⁻¹ s⁻¹ in series [2] (pH 7.5). Also, in series [3] (FIG. 2, 10 mM, 5-fold lower concentration than NAC), the “Muc5b reduction relative to NAC” value was “greater Muc5b reduction relative to NAC”. Besides, the “reduction of salivary Muc5b compared to NAC” value in series [3] (FIG. 2, equimolar concentrations relative to NAC (50 mM)) is “significantly faster and more complete reduction”.

Take `CC(=O)SCc1ccc(OCCN(C[C@H](O)[C@@H](O)[C@H](O)[C@H](O)CO)C[C@H](O)[C@@H](O)[C@H](O)[C@H](O)CO)cc1` [Compound 85, S-4-(2-(bis((2S,3R,4R,5R)-2,3,4,5,6-pentahydroxyhexyl)amino)ethoxy)benzyl Ethanethioate]: in series [5] (22.5 μM prodrug, 100 μM DTNB, pH 7.5, no enzyme), the “Reduction Without Esterase” value was “No”. In addition, the “Reduction With Esterase” value in series [5] (22.5 μM prodrug, 100 μM DTNB, pH 7.5, porcine liver esterase) is recorded as “Yes”. Further, the “DTNB cleavage without esterase” value in series [5] (FIG. 7 middle panel) was “does not cleave DTNB”. The “DTNB cleavage after addition of an esterase” value in series [5] (FIG. 7 right-hand panel) is reported as “metabolically converts 85 to 86, allowing it to hydrolyze DTNB”. In addition, the “membrane permeability (PAMPA)” value in series [4] was “poor membrane permeability”. In addition, the “Muc5b reduction in sputum” value in series [6] is “reduces the Muc5b, but with a delayed kinetic relative to 86”. Further, in series [7], the “duration of mucus reduction” value was “potentially longer duration of action” and the mucin reduction kinetics result is given as “slower reduction kinetics”.

As to `OC[C@@H](O)[C@@H](O)[C@H](O)[C@@H](O)CN(CCOc1ccc(CS)cc1)C[C@H](O)[C@@H](O)[C@H](O)[C@H](O)CO` [Compound 86, (2R,2′R,3R,3′R,4R,4′R,5S,5′S)-6,6′-((2-(4-(mercaptomethyl)phenoxy)ethyl)azanediyl)bis(hexane-1,2,3,4,5-pentaol)], the IL-8 secretion result in series [1] is listed as “no change in IL-8”. For the same compound, the “membrane permeability (PAMPA)” value in series [4] is on record as “poor membrane permeability”. In series [2] (FIG. 7 left panel), the DTNB cleavage entry was “rapidly cleaves DTNB”. Also, the DTNB reduction rate in series [2] (pH 6) came out at 160 M⁻¹ s⁻¹. For the same compound, in series [6], the “Muc5b reduction in sputum” value was “rapidly reduced Muc5b”. The “reducing capacity relative to 76 (Muc5B)” value in series [3] is listed as “retain the reducing capacity of 76”. Besides, the Muc5b reduction result in series [3] (3 mM) is “partial reduction”; in series [3] (30 mM) it was “full Muc5b reduction”. Besides, the “duration of mucus reduction” value in series [7] is recorded as “substantially recovered 24 hours after dosing”. In series [7], the mucin reduction kinetics result was “rapid reduction of the mucus”.

In turn, `CC(=O)N[C@@H](CS)C(=O)O` [NAC, N-acetyl cysteine, reference compound] gave a half-life in series [8] of around 20 min. The DTNB reduction rate in series [2] (pH 6) was determined as 10 M⁻¹ s⁻¹; in series [2] (pH 6.5) it was 26 M⁻¹ s⁻¹; in series [2] (pH 7), 69 M⁻¹ s⁻¹; in series [2] (pH 7.5), 230 M⁻¹ s⁻¹. Besides, in series [3] (30 mM), the Muc5b reduction result was “partial Muc5b reduction”.

What is called half-life is the time in which the quantity being followed falls by half. The low end stands for rapid decline, the high end for slow decline.
